# In the supplement of paper PMC10307832:
# Assays:
# Assay in all cases: relative viability (nuclei count vs DMSO), 5 days (fraction); higher = more cells survive
# [1] = system: NCI-H1563
# In short: (§1)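 Each reported value is a median over duplicate plates. It expresses relative viability: treated-well nuclei count divided by vehicle-well nuclei count. Lung cancer cell lines in 1536-well plates were dosed by pin tool a day after seeding, alone with one drug or with a fixed anchor-drug dose plus five library-drug doses (not always all listed) in √10 steps, and nuclei were counted after 5 days.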
# [2] = system: NCI-H2342
# In short: as §1
# [3] = system: EPLC-272H
# In short: as §1
# [4] = system: LXF-289
# In short: as §1
# [5] = system: HCC-78
# In short: as §1
# [6] = system: ChaGo-K-1
# In short: as §1
# [7] = system: NCI-H23
# In short: as §1
# [8] = system: PC-14
# In short: as §1
# [9] = system: NCI-H2126
# In short: as §1
# [10] = system: HCC-827
# In short: as §1
# [11] = system: NCI-H322M
# In short: as §1
# [12] = system: RERF-LC-KJ
# In short: as §1
# [13] = system: EKVX
# In short: as §1
# [14] = system: LK-2
# In short: as §1
# [15] = system: NCI-H1666
# In short: as §1
# [16] = system: SW 900
# In short: as §1
# [17] = system: NCI-H1975
# In short: as §1
# [18] = system: EMC-BAC-2
# In short: as §1
# [19] = system: LU99A
# In short: as §1
# [20] = system: LCLC-103H
# In short: as §1
# [21] = system: SK-LU-1
# In short: as §1
# [22] = system: SW 1573
# In short: as §1
# [23] = system: NCI-H2405
# In short: as §1
compound,measurement,setting,value
O=c1cc(N2CCOCC2)oc2c(-c3cccc4c3sc3ccccc34)cccc12 + COc1cc2c(Oc3ccc(NC(=O)C4(C(=O)Nc5ccc(F)cc5)CC4)cc3F)ccnc2cc1OCCCN1CCOCC1 [Foretinib] (partner 0.25 µM),relative viability,[1]; first compound 0.01 µM,0.913
same,relative viability,[1]; first compound 0.03162 µM,0.833
same,relative viability,[1]; first compound 0.1 µM,0.895
same,relative viability,[1]; first compound 0.3162 µM,0.901
same,relative viability,[1]; first compound 1 µM,0.888
same,relative viability,[2]; first compound 0.01 µM,1.04
same,relative viability,[2]; first compound 0.03162 µM,1.11
same,relative viability,[2]; first compound 0.1 µM,0.997
same,relative viability,[2]; first compound 0.3162 µM,1.04
same,relative viability,[2]; first compound 1 µM,1.07
same,relative viability,[3]; first compound 0.01 µM,0.607
same,relative viability,[3]; first compound 0.03162 µM,0.667
same,relative viability,[3]; first compound 0.3162 µM,0.734
same,relative viability,[3]; first compound 1 µM,0.688
same,relative viability,[4]; first compound 0.01 µM,0.969
same,relative viability,[4]; first compound 0.03162 µM,0.984
same,relative viability,[4]; first compound 0.1 µM,1
same,relative viability,[4]; first compound 0.3162 µM,0.97
same,relative viability,[4]; first compound 1 µM,0.965
same,relative viability,[5]; first compound 0.01 µM,0.492
same,relative viability,[5]; first compound 0.03162 µM,0.457
same,relative viability,[5]; first compound 0.1 µM,0.544
same,relative viability,[5]; first compound 0.3162 µM,0.581
same,relative viability,[5]; first compound 1 µM,0.533
same,relative viability,[6]; first compound 0.01 µM,0.901
same,relative viability,[6]; first compound 0.03162 µM,1.01
same,relative viability,[6]; first compound 0.1 µM,0.948
same,relative viability,[6]; first compound 0.3162 µM,0.869
same,relative viability,[6]; first compound 1 µM,0.96
same,relative viability,[7]; first compound 0.01 µM,1.02
same,relative viability,[7]; first compound 0.03162 µM,1.01
same,relative viability,[7]; first compound 0.3162 µM,1.06
same,relative viability,[7]; first compound 1 µM,0.919
same,relative viability,[8]; first compound 0.01 µM,0.957
same,relative viability,[8]; first compound 0.03162 µM,0.965
same,relative viability,[8]; first compound 0.1 µM,0.994
same,relative viability,[8]; first compound 0.3162 µM,0.987
same,relative viability,[8]; first compound 1 µM,0.948
same,relative viability,[9]; first compound 0.01 µM,1.16
same,relative viability,[9]; first compound 0.03162 µM,1.22
same,relative viability,[9]; first compound 0.1 µM,1.29
same,relative viability,[9]; first compound 0.3162 µM,1.2
same,relative viability,[9]; first compound 1 µM,1.24
same,relative viability,[10]; first compound 0.01 µM,1.01
same,relative viability,[10]; first compound 0.03162 µM,1.11
same,relative viability,[10]; first compound 0.1 µM,1.03
same,relative viability,[10]; first compound 0.3162 µM,1.04
same,relative viability,[10]; first compound 1 µM,1.03
same,relative viability,[11]; first compound 0.01 µM,0.91
same,relative viability,[11]; first compound 0.03162 µM,0.903
same,relative viability,[11]; first compound 0.1 µM,0.888
same,relative viability,[11]; first compound 0.3162 µM,0.917
same,relative viability,[11]; first compound 1 µM,0.849
same,relative viability,[12]; first compound 0.01 µM,0.831
same,relative viability,[12]; first compound 0.03162 µM,0.876
same,relative viability,[12]; first compound 0.1 µM,0.91
same,relative viability,[12]; first compound 0.3162 µM,0.852
same,relative viability,[12]; first compound 1 µM,0.846
same,relative viability,[13]; first compound 0.01 µM,0.973
same,relative viability,[13]; first compound 0.03162 µM,1.05
same,relative viability,[13]; first compound 0.1 µM,0.818
same,relative viability,[13]; first compound 0.3162 µM,0.628
same,relative viability,[13]; first compound 1 µM,0.59
same,relative viability,[14]; first compound 0.01 µM,1.17
same,relative viability,[14]; first compound 0.03162 µM,1.16
same,relative viability,[14]; first compound 0.1 µM,1.53
same,relative viability,[14]; first compound 0.3162 µM,0.958
same,relative viability,[14]; first compound 1 µM,0.951
same,relative viability,[15]; first compound 0.01 µM,0.907
same,relative viability,[15]; first compound 0.03162 µM,0.917
same,relative viability,[15]; first compound 0.1 µM,0.983
same,relative viability,[15]; first compound 0.3162 µM,0.883
same,relative viability,[15]; first compound 1 µM,0.913
same,relative viability,[16]; first compound 0.01 µM,0.859
same,relative viability,[16]; first compound 0.03162 µM,0.888
same,relative viability,[16]; first compound 0.1 µM,0.789
same,relative viability,[16]; first compound 0.3162 µM,0.798
same,relative viability,[16]; first compound 1 µM,0.818
same,relative viability,[17]; first compound 0.01 µM,0.842
same,relative viability,[17]; first compound 0.03162 µM,1.1
same,relative viability,[17]; first compound 0.1 µM,1.1
same,relative viability,[17]; first compound 0.3162 µM,0.927
same,relative viability,[17]; first compound 1 µM,0.936
same,relative viability,[18]; first compound 0.01 µM,1.01
same,relative viability,[18]; first compound 0.03162 µM,0.995
same,relative viability,[18]; first compound 0.1 µM,0.99
same,relative viability,[18]; first compound 0.3162 µM,0.983
same,relative viability,[18]; first compound 1 µM,0.978
same,relative viability,[19]; first compound 0.01 µM,0.937
same,relative viability,[19]; first compound 0.03162 µM,0.739
same,relative viability,[19]; first compound 0.1 µM,0.908
same,relative viability,[19]; first compound 0.3162 µM,0.806
same,relative viability,[19]; first compound 1 µM,0.777
same,relative viability,[20]; first compound 0.01 µM,0.685
same,relative viability,[20]; first compound 0.03162 µM,0.786
same,relative viability,[20]; first compound 0.1 µM,0.806
same,relative viability,[20]; first compound 0.3162 µM,0.824
same,relative viability,[20]; first compound 1 µM,0.746
same,relative viability,[21]; first compound 0.01 µM,0.893
same,relative viability,[21]; first compound 0.03162 µM,0.918
same,relative viability,[21]; first compound 0.1 µM,0.789
same,relative viability,[21]; first compound 0.3162 µM,0.834
same,relative viability,[21]; first compound 1 µM,0.768
same,relative viability,[22]; first compound 0.01 µM,0.537
same,relative viability,[22]; first compound 0.03162 µM,0.982
same,relative viability,[22]; first compound 0.1 µM,0.87
same,relative viability,[22]; first compound 0.3162 µM,0.87
same,relative viability,[22]; first compound 1 µM,1.07
same,relative viability,[23]; first compound 0.01 µM,1.07
same,relative viability,[23]; first compound 0.03162 µM,1.07
same,relative viability,[23]; first compound 0.1 µM,1.12
same,relative viability,[23]; first compound 0.3162 µM,1.03
same,relative viability,[23]; first compound 1 µM,1.02
